The results in this text go back to US5512569A, “Aminoalkyl benzothiazolinones” (Adir et Compagnie, priority 1994, dated 1996).

For this data set, the system named is catalepsigenic effect. The data set is described as follows: Investigation into the catalepsigenic effect in rats. It counts as in vivo, Wistar rats. The settings on record: 2 mg.kg^-1, same study conditions (IP, rats, 30-minute interval). On the procedure:
The catalepsigenic effect is investigated in rats via the intraperitoneal route. This test predicts the existence of side effects of extrapyramidal type. 6 groups of Wistar rats received an injection of the compounds of the invention and were then tested for their catalepsigenic activity after a 30-minute interval. Haloperidol is used as reference.

`O=C(CCCN1CCC(O)(c2ccc(Cl)cc2)CC1)c1ccc(F)cc1` [haloperidol] gave a catalepsigenic effect of 95%.
